Laboratory results published in patent US10633707B2, “Markers for detecting microsatellite instability in cancer and determining synthetic lethality with inhibition of the DNA base excision repair pathway” (VIB VZW, priority 2012, dated 2020).
“Also recorded” adds a separate entry of the source.

How the values were obtained:
[1] = test system: MMR-deficient primary tumor cultures and cancer cell lines; assay: RAD51 immunostaining (RAD51 foci formation) after olaparib, MMR-deficient cells; format: cell-based, human; conditions: 10 μM olaparib, 24 hours, average of 8 MMR-deficient cultures
Description: (§1) To investigate whether the DSB repair by HR pathway is functionally inactivated in MMR-deficient tumors, it was assessed the DSB repair activity in eight MMR-deficient and four MMR-proficient primary tumor cultures and cancer cell lines. The MMR status of these cells was analyzed using the 56-marker panel and confirmed by the Bethesda Panel.
(§2) Nine primary endometrial and ovarian tumor cell cultures were established from patients undergoing surgery at the Division of Gynecologic Oncology, University Hospitals Gasthuisberg, Leuven (Belgium). Only after providing informed consent, patients were included in the study. The following protocol was used to generate primary tumor cultures. First, tumor samples were placed into sterile RPMI medium supplemented with Penicillin/Streptomycin (1000 U/ml) and Fungizone (0.5 μg/ml) (all from Life Technologies) for transport from the surgery room to the cell culture laboratory. […]
(§3) Primary tumor cell cultures were grown in RPMI Medium 1640 (Gibco) supplemented with 20% fetal bovine serum, 2 mM L-Glutamine, 100 U/ml of penicillin, 100 μg/ml of streptomycin, 1 μg/ml of fungizone and 10 μg/ml of gentamicin up to 20 passages. […] They were also routinely monitored for Mycoplasma contamination and no Mycoplasma growth has been detected. […]

BRCA1-deficient cells = conditions: 3 μM olaparib; cited from earlier work
[2] = test system: MMR-deficient and MMR-proficient tumor cells; assay: γH2AX immunostaining (unrepaired DNA damage) after olaparib; format: cell-based, human; conditions: all cells regardless of MMR status
Description: Primary tumor cultures and immunofluorescence: Nine primary endometrial and ovarian tumor cell cultures were established from tumors of the patients undergoing surgery. Primary tumor cell cultures were grown in RPMI1640 medium (GIBCO) supplemented with 20% FBS, 2 mM L-Glutamine, 100 U/ml penicillin, 100 μg/ml streptomycin, 1 μg/ml fungizone and 10 μg/ml gentamicin up to 20 passages. 25,000 cells/well were seeded on eight-well slides (Nunc) in 400 μl medium and grown for 24 hours. Following exposure to 0 or 10 μM olaparib, slides were rinsed in PBS, fixed in paraformaldehyde at 37° C., permeabilized with 0.1% Triton X-100 and blocked with BSA. […] The percentage of foci positive cells (>5 foci per nucleus) was determined on a Zeiss LSM 510 inverted confocal microscope using Plan-Neofluar 40×/1.3 oil immersion objective. For each experiment, at least 100 nuclei were analyzed.
The degree of unrepaired DNA damage upon olaparib treatment was measured with γH2AX immunofluorescence. […]
γH2AX and RAD51 foci were visualized with Zeiss LSM 510 inverted confocal microscope using Plan-Neofluar 40x/1.3 oil immersion objective and excitation wavelengths of 488 and 750 nm (Chameleon coherent two-photon laser). […] Nuclei with >5 foci were scored positive, and at least 100 nuclei were counted per culture and per condition.

MMR-deficient cells = assay: Cell proliferation with xCELLigence RTCA system, MMR-deficient cells; format: cell-based, human; conditions: for decrease in proliferation versus untreated cells: average of 8 MMR-deficient cultures, 48 hours
Description: (§4) As MMR-deficient tumors are characterized by reduced activity of the DSB repair by HR pathway, it was hypothesized that these tumors, similar to BRCA1-deficient tumors (Farmer et al., 2005), can be selectively targeted by PARP inhibition. All eight MMR-deficient and four MMR-proficient cultures were dose-dependently (1, 3 and 10 μM) exposed to olaparib and effects on proliferation were assessed.
(§5) Real-Time Cell Analyzer (RTCA) xCELLigence System (Roche Applied Science, Mannheim, Germany) was used to dynamically monitor cell proliferation rates. The system measures electrical impedance across microelectrodes on the bottom of tissue culture E-plates. The impedance measurement provides quantitative information about cell number, viability, morphology and adhesion. 5,000 cells/well were seeded on E-plate 16 (Roche) in 200 μl medium. 24 hours post-seeding, cells were treated with olaparib to the desired final concentration (1, 3, 10 μM olaparib). The final DMSO percent in all wells was 0.1%. Each treatment condition was measured in triplicate. Dynamic cell index values were monitored in five-minute intervals for 48 hours after treatments. Cell index values were normalized to the vehicle-treated control for each cell.
Cell Proliferation: Real-Time Cell Analyzer (RTCA) xCELLigence System (Roche) was used to dynamically monitor cell proliferation rates. 5,000 cells/well were seeded on E-plate 16 (Roche) in 200 μl medium. Olaparib (AZD-2281, JS Research Chemicals Trading) was dissolved in DMSO. 24 hours post-seeding, cells were treated with olaparib ([…]). Each condition was measured in triplicate and all experiments were done in duplicate at different time points. Dynamic cell index values were monitored for 48 hours after treatment.

BRCA2-deficient cells = conditions: 10 μM olaparib; cited from earlier work
MMR-proficient cells = assay: Cell proliferation with xCELLigence RTCA system, MMR-proficient cells; format: cell-based, human; conditions: 1, 3 and 10 μM olaparib, 48 hours
Description: as §4
as §5, with “24 hours post-seeding, cells were treated with olaparib to the desired final concentration (1, 3, 10 μM olaparib). The final DMSO percent in all wells was 0.1%.” left out, “Cell index values were normalized to the vehicle-treated control for each cell.” left out
Cell Proliferation: Real-Time Cell Analyzer (RTCA) xCELLigence System (Roche) was used to dynamically monitor cell proliferation rates. […] Each condition was measured in triplicate and all experiments were done in duplicate at different time points. Dynamic cell index values were monitored for 48 hours after treatment.

[3] = test system: MMR-proficient primary tumor cultures and cancer cell lines; assay: RAD51 immunostaining (RAD51 foci formation) after olaparib, MMR-proficient cells; format: cell-based, human; conditions: 10 μM olaparib, 24 hours, average of 4 MMR-proficient cultures
Description: as §1, §2, §3

O=C(c1cc(Cc2n[nH]c(=O)c3ccccc23)ccc1F)N1CCN(C(=O)C2CC2)CC1 [olaparib]
cells showing RAD51 foci formation (>5 foci per nucleus) [1]: 19±3% | decrease in viability (BRCA1-deficient cells): 78% | increase in number of γH2AX foci compared to baseline ([2]; 10 μM olaparib): 4-6 fold | number of γH2AX foci (in words) ([2]; olaparib): drastically increased | decrease in proliferation versus untreated cells (MMR-deficient cells; 1 μM olaparib): 15% | decrease in proliferation versus untreated cells (MMR-deficient cells; 3 μM olaparib): 20% | decrease in proliferation versus untreated cells (MMR-deficient cells; 10 μM olaparib): 42% | effect on proliferation (in words) (MMR-deficient cells; 1, 3 and 10 μM olaparib, MMR-deficient cells): dose-dependent decrease in proliferation | decrease in viability (BRCA2-deficient cells): 91% | effect on proliferation (in words) (MMR-proficient cells): no effect; also recorded: did not respond to olaparib | cells showing RAD51 foci formation (>5 foci per nucleus) [3]: 37±4%
